From patent US8722849B2, “Polypeptides” (Novo Nordisk A/S, priority 2011, dated 2014) come the findings set out here.

Data set [1] concerns the target T1, human amylin receptor (amylin 3(a) receptor: human calcitonin receptor + RAMP-3) (Homo sapiens, UniProt O60896+P30988).
T1 construct: expressed in transfected cells; host or cells: BHK570
T1 sequence (P30988 25-474): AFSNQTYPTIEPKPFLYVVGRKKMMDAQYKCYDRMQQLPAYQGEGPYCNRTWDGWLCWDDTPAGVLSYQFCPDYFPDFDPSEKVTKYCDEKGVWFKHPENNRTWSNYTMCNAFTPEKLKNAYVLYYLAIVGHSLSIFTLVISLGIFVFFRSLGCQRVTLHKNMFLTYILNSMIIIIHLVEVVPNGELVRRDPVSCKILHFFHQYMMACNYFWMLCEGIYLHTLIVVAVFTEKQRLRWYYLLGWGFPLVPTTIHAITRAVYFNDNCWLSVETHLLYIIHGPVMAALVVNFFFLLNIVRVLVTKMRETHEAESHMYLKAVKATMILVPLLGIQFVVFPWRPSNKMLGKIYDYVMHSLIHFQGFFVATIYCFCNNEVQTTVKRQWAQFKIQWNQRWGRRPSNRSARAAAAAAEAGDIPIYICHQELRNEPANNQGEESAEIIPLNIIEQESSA
T1 sequence (O60896 24-148 partner): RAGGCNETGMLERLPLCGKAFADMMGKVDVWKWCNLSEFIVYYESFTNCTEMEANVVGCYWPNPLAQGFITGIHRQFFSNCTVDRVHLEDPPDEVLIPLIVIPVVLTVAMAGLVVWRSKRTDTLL
In words: Assay (II)a functional CRE-luciferase assay, human amylin receptor. The format is cell-based. The conditions noted are these: Table 2; BHK amylin 3(a)-receptor/CRE-luc cells.

The target in data set [2] is T2, human calcitonin receptor (Homo sapiens, UniProt P30988).
T2 construct: expressed in transfected cells; host or cells: BHK570
T2 sequence (P30988 25-474): T1 sequence (P30988 25-474)
In words: Assay (II)a functional CRE-luciferase assay, human calcitonin receptor. The format is cell-based. As to conditions: Table 7; human calcitonin (CTa) receptor.

Data set [3] is described as follows: Assay (IV) determination of solubility. In kind it is physicochemical. In short, it runs like this: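 Polypeptide in water (~500 nmol/ml stock) was mixed 1:1 with 100 mM buffers from pH 3.0 to 8.0 (glycylglycine pH 3.0–5.0; bistrispropane pH 6.0–8.0). After 18 hours at room temperature, samples were centrifuged and the polypeptide remaining in solution was quantified by HPLC.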

Data set [4] is described as follows: Assay (III) ThT fibrillation assay for physical stability. The format is physicochemical. In short, it runs like this: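 Freshly prepared formulations, pH-adjusted, with 1 μM ThT; four or eight replicates incubated at 37 °C under 960 rpm orbital shaking. Fluorescence (ex 444/em 485 nm) read every 20 min; […]. Peptide concentration measured by RP-HPLC before and after the run.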

The mark [5] stands for this setting: bistrispropane buffer, pH 6, pH 6.0, read-out: Solubility pH 6.0.
Where [6] appears, read: bistrispropane buffer, pH 6.5, pH 6.5, read-out: Solubility pH 6.5.
[7] abbreviates: bistrispropane buffer, pH 8, pH 8.0, read-out: Solubility pH 8.0.
Setting [8] is: glycylglycine buffer, pH 3, pH 3.0, read-out: Solubility pH 3.0.
Where [9] appears, read: glycylglycine buffer, pH 4, pH 4.0, 18 hours at room temperature, Table 2, read-out: Solubility pH 4.0.
[10] abbreviates: glycylglycine buffer, pH 4, pH 4.0, read-out: Solubility pH 4.0.
Where [11] appears, read: glycylglycine buffer, pH 5, pH 5.0, read-out: Solubility pH 5.0.
Setting [12] is: bistrispropane buffer, pH 7, pH 7.0, 18 hours at room temperature, Table 3, read-out: Solubility pH 7.0.
Setting [13] is: bistrispropane buffer, pH 7, pH 7.0, read-out: Solubility pH 7.0.
The mark [14] stands for this setting: bistrispropane buffer, pH 7.5, pH 7.5, read-out: Solubility pH 7.5.

As usually defined, the EC50 is the concentration needed to bring the measured effect to its halfway point. A word on the solubility: it is how much of the substance goes into solution per volume.

In brackets after ≈: the same amount, converted by molar mass. Where two headings read alike, the source gives them in different places. Starred links: 1 amine or outer side, 2 acyl side, 3 side chain; linkers in the order of their positions; H or OH if unused. Positions of bridges follow the written chain, without caps; N, C: chain ends. Residues, ends and D or L forms follow the SMILES beside them. *: point of attachment. C20 diacid = O=C(O)CCCCCCCCCCCCCCCCCCC(=O)*; γGlu = O=C(O)[C@H](CCC(=O)[*:2])N[*:1]

As for `CC[C@H](C)[C@H](NC(=O)[C@@H]1CCCN1C(=O)CNC(=O)[C@H](Cc1ccccc1)NC(=O)[C@H](CC(N)=O)NC(=O)[C@H](CC(N)=O)NC(=O)[C@H](CO)NC(=O)[C@H](CO)NC(=O)[C@H](Cc1c[nH]cn1)NC(=O)[C@H](Cc1c[nH]cn1)NC(=O)[C@H](CC(C)C)NC(=O)[C@H](Cc1ccccc1)NC(=O)[C@H](CCC(=O)O)NC(=O)[C@H](C)NC(=O)[C@H](CC(C)C)NC(=O)[C@H](CCCNC(=N)N)NC(=O)[C@H](CCC(N)=O)NC(=O)[C@@H](NC(=O)[C@H](C)NC(=O)[C@@H]1CSSC[C@H](NC(=O)[C@H](Cc2c[nH]cn2)NC(=O)[C@H](Cc2c[nH]cn2)NC(=O)[C@H](Cc2c[nH]cn2)NC(=O)CC[C@H](NC(=O)CCCCCCCCCCCCCCCCCCC(=O)O)C(=O)O)C(=O)N[C@@H](Cc2c[nH]cn2)C(=O)N[C@@H]([C@@H](C)O)C(=O)N[C@@H](C)C(=O)N[C@@H]([C@@H](C)O)C(=O)N1)[C@@H](C)O)C(=O)N[C@@H](CC(C)C)C(=O)N1CCC[C@H]1C(=O)N[C@@H](Cc1c[nH]cn1)C(=O)N[C@H](C(=O)N[C@@H](CC(N)=O)C(=O)N[C@H](C(=O)NCC(=O)N[C@@H](CO)C(=O)N[C@@H](Cc1c[nH]cn1)C(=O)N[C@H](C(=O)N[C@@H](Cc1ccc(O)cc1)C(N)=O)[C@@H](C)O)C(C)C)[C@@H](C)O` [Example 33, N-alpha-[(S)-4-Carboxy-4-(19-carboxynonadecanoylamino)butyryl]-His-His-[His1,His3,Glu14,His17,His29,His35]-pramlintide] ({C20 diacid-γGlu}-HHHCHTATCATQRLAEFLHHSSNNFGPILPHTNVGSHTY-NH2; disulfide 4-9 (inferred); C-terminus assumed), the values for the EC50 in data set [1] and in data set [2] were 1.03 nM and 0.484 nM, respectively. The solubility at 18 h was more than 200 µM in data set [3] (setting [5]); 17 µM (≈ 82 µg/mL) in data set [3] (setting [6]); 16 µM (≈ 77.2 µg/mL) in data set [3] (setting [7]); more than 200 µM in data set [3] (setting [8]); more than 200 µM in data set [3] (setting [9]); more than 200 µM in data set [3] (setting [10]). Besides, the solubility at 18 h in data set [3] (setting [11]) is more than 200 µM. Also, the “ThT pH 4.0 lag time (h)” value in data set [4] (ThT fibrillation assay) amounted to 10 h.
Consider `CC[C@H](C)[C@H](NC(=O)[C@@H]1CCCN1C(=O)CNC(=O)[C@H](Cc1ccccc1)NC(=O)[C@H](CC(N)=O)NC(=O)[C@H](CC(N)=O)NC(=O)[C@H](CO)NC(=O)[C@H](CO)NC(=O)[C@H](Cc1c[nH]cn1)NC(=O)[C@H](Cc1c[nH]cn1)NC(=O)[C@H](CC(C)C)NC(=O)[C@H](Cc1ccccc1)NC(=O)[C@H](CCC(=O)O)NC(=O)[C@H](C)NC(=O)[C@H](CC(C)C)NC(=O)[C@H](CCCNC(=N)N)NC(=O)[C@H](CCC(N)=O)NC(=O)[C@@H](NC(=O)[C@H](C)NC(=O)[C@@H]1CSSC[C@H](NC(=O)[C@H](CCC(=O)O)NC(=O)[C@H](CCCNC(=N)N)NC(=O)[C@H](CCC(=O)O)NC(=O)CC[C@H](NC(=O)CCCCCCCCCCCCCCCCCCC(=O)O)C(=O)O)C(=O)N[C@@H](CC(N)=O)C(=O)N[C@@H]([C@@H](C)O)C(=O)N[C@@H](C)C(=O)N[C@@H]([C@@H](C)O)C(=O)N1)[C@@H](C)O)C(=O)N[C@@H](CC(C)C)C(=O)N1CCC[C@H]1C(=O)N1CCC[C@H]1C(=O)N[C@H](C(=O)N[C@@H](CC(N)=O)C(=O)N[C@H](C(=O)NCC(=O)N[C@@H](CO)C(=O)N[C@@H](CC(N)=O)C(=O)N[C@H](C(=O)N1CCC[C@H]1C(N)=O)[C@@H](C)O)C(C)C)[C@@H](C)O` [Example 123, N-alpha-[(S)-4-Carboxy-4-(19-carboxynonadecanoylamino)butyryl]-Glu-Arg-[Glu1,Glu14,His17,Pro37]-pramlintide] ({C20 diacid-γGlu}-ERECNTATCATQRLAEFLHHSSNNFGPILPPTNVGSNTP-NH2; disulfide 4-9 (inferred)), for which the EC50 in data set [1] is 0.136 nM; in data set [2], 0.378 nM. Moreover, the solubility at 18 h in data set [3] (setting [5]), in data set [3] (setting [6]), in data set [3] (setting [12]), in data set [3] (setting [13]), in data set [3] (setting [14]) and in data set [3] (setting [7]) was more than 200 µM in each case. For the same compound, the solubility at 18 h in data set [3] (setting [8]), in data set [3] (setting [9]), in data set [3] (setting [10]) and in data set [3] (setting [11]) was more than 200 µM throughout. In addition, the “ThT pH 4.0 lag time (h)” value in data set [4] (ThT fibrillation assay) came to 8.7 h.
With `CC[C@H](C)[C@H](NC(=O)[C@@H]1CCCN1C(=O)CNC(=O)[C@H](Cc1ccccc1)NC(=O)[C@H](CC(N)=O)NC(=O)[C@H](CC(N)=O)NC(=O)[C@H](CO)NC(=O)[C@H](CO)NC(=O)[C@H](Cc1c[nH]cn1)NC(=O)[C@H](Cc1c[nH]cn1)NC(=O)[C@H](CC(C)C)NC(=O)[C@H](Cc1ccccc1)NC(=O)[C@H](CCC(=O)O)NC(=O)[C@H](C)NC(=O)[C@H](CC(C)C)NC(=O)[C@H](CCCNC(=N)N)NC(=O)[C@H](CCC(N)=O)NC(=O)[C@@H](NC(=O)[C@H](C)NC(=O)[C@@H]1CSSC[C@H](NC(=O)CC[C@H](NC(=O)CCCCCCCCCCCCCCCCCCC(=O)O)C(=O)O)C(=O)N[C@@H](CC(N)=O)C(=O)N[C@@H]([C@@H](C)O)C(=O)N[C@@H](C)C(=O)N[C@@H]([C@@H](C)O)C(=O)N1)[C@@H](C)O)C(=O)N[C@@H](CC(C)C)C(=O)N1CCC[C@H]1C(=O)N1CCC[C@H]1C(=O)N[C@H](C(=O)N[C@@H](CC(N)=O)C(=O)N[C@H](C(=O)NCC(=O)N[C@@H](CO)C(=O)N[C@@H](Cc1c[nH]cn1)C(=O)N[C@H](C(=O)N[C@@H](Cc1ccc(O)cc1)C(N)=O)[C@@H](C)O)C(C)C)[C@@H](C)O` [Example 75, N-alpha-[(S)-4-Carboxy-4-(19-carboxynonadecanoylamino)butyryl]-[des1,Glu14,His17,His35]-pramlintide] ({C20 diacid-γGlu}-CNTATCATQRLAEFLHHSSNNFGPILPPTNVGSHTY-NH2; disulfide 1-6 (inferred)), the concentration giving a half-maximal response (EC50) amounted to 0.365 nM in data set [1] and 0.286 nM in data set [2]. In addition, the solubility at 18 h in data set [3] (setting [5]) was more than 200 µM; in data set [3] (setting [6]), 193 µM (≈ 840 µg/mL); in data set [3] (setting [12]), more than 200 µM; in data set [3] (bistrispropane buffer, pH 7, pH 7.0, Table 8, read-out: Solubility pH 7.0) it was more than 200 µM; in data set [3] (setting [13]), more than 200 µM; in data set [3] (setting [14]), more than 200 µM. Moreover, the solubility at 18 h in data set [3] (setting [7]), in data set [3] (setting [8]), in data set [3] (setting [9]), in data set [3] (setting [10]) and in data set [3] (setting [11]) was more than 200 µM each time. In addition, the “ThT pH 4.0 lag time” value in data set [4] (Table 8) and in data set [4] (ThT fibrillation assay) was 28 h throughout. Besides, in data set [4] (ThT fibrillation assay), the “ThT pH 4.0 lag time (h)” value was 28 h.
